The OligoGym collection
“And” between values parts separate entries of the source, which are not always exact repeats. Identical values can stand only once. HELM strings list units from the 5' end as sugar, base in round brackets, then linkage (d deoxyribose, r ribose, m 2'-O-methyl, p phosphodiester). Strings are as the collection lists them, not checked against the first reports. ss, as = sense and antisense strand; [lna] = locked nucleic acid (LNA); [una] = unlocked nucleic acid; [fl2r] = 2'-fluoro

Conditions: siRNA
Also: test system not given here.

Substance	target mRNA knockdown
RNA1{r(U)p.r(C)p.r(C)p.r(U)p.r(A)p.r(C)p.r(A)p.r(G)p.r(C)p.r(A)p.r(C)p.r(A)p.r(A)p.r(C)p.r(A)p.r(A)p.r(A)p.r(U)p.r(G)p.d(U)p.d(G)}|RNA2{r(C)p.r(A)p.r(U)p.r(U)p.r(U)p.r(G)p.r(U)p.r(U)p.r(G)p.r(U)p.r(G)p.r(C)p.r(U)p.r(G)p.r(U)p.r(A)p.r(G)p.r(G)p.r(A)p.d(T)p.d(T)}$$$RNA1{StrandType:ss}|RNA2{StrandType:as}$	54%
RNA1{r(U)p.r(C)p.r(C)p.r(U)p.r(C)p.r(G)p.r(U)p.m(C)p.r(G)p.r(U)p.r(C)p.m(U)p.r(G)p.r(U)p.r(U)p.r(C)p.m(U)p.r(A)p.r(A)p.r(T)p.r(T)}|RNA2{r(U)p.m(U)p.r(A)p.r(G)p.r(A)p.r(A)p.m(C)p.r(A)p.r(G)p.r(A)p.r(C)p.r(G)p.r(A)p.r(C)p.r(G)p.r(A)p.r(G)p.r(G)p.r(A)p.r(T)p.r(T)}$$$RNA1{StrandType:ss}|RNA2{StrandType:as}$	82%
RNA1{r(U)p.r(C)p.r(C)p.r(U)p.r(C)p.r(G)p.r(U)p.r(C)p.[fl2r](G)p.r(U)p.r(C)p.[fl2r](U)p.[fl2r](G)p.r(U)p.r(U)p.r(C)p.[fl2r](U)p.r(A)p.r(A)p.r(T)p.r(T)}|RNA2{r(U)p.[fl2r](U)p.r(A)p.r(G)p.r(A)p.r(A)p.[fl2r](C)p.r(A)p.r(G)p.r(A)p.r(C)p.r(G)p.r(A)p.r(C)p.r(G)p.r(A)p.r(G)p.r(G)p.r(A)p.r(T)p.r(T)}$$$RNA1{StrandType:ss}|RNA2{StrandType:as}$	77%
RNA1{r(U)p.r(C)p.r(C)p.r(U)p.r(C)p.r(G)p.r(U)p.r(C)p.r(G)p.r(U)p.r(C)p.r(U)p.r(G)p.r(U)p.r(U)p.r(C)p.[fl2r](U)p.r(A)p.r(A)p.r(T)p.r(T)}|RNA2{r(U)p.[fl2r](U)p.r(A)p.r(G)p.r(A)p.r(A)p.[fl2r](C)p.r(A)p.r(G)p.r(A)p.r(C)p.r(G)p.r(A)p.r(C)p.r(G)p.r(A)p.r(G)p.r(G)p.r(A)p.r(T)p.r(T)}$$$RNA1{StrandType:ss}|RNA2{StrandType:as}$	74%
RNA1{r(U)p.r(C)p.r(C)p.r(U)p.r(C)p.r(G)p.r(U)p.r(C)p.r(G)p.r(U)p.r(C)p.r(U)p.r(G)p.r(U)p.r(U)p.r(C)p.m(U)p.r(A)p.r(A)p.r(T)p.r(T)}|RNA2{r(U)p.m(U)p.r(A)p.r(G)p.r(A)p.r(A)p.r(C)p.r(A)p.r(G)p.r(A)p.r(C)p.r(G)p.r(A)p.r(C)p.r(G)p.r(A)p.r(G)p.r(G)p.r(A)p.r(T)p.r(T)}$$$RNA1{StrandType:ss}|RNA2{StrandType:as}$	84%
RNA1{r(U)p.r(C)p.r(G)p.r(G)p.r(G)p.r(A)p.r(A)p.r(A)p.r(U)p.r(U)p.r(U)p.r(C)p.r(U)p.r(C)p.r(U)p.r(A)p.r(U)p.r(U)p.r(A)p.d(T)p.d(T)}|RNA2{r(U)p.r(A)p.r(A)p.r(U)p.r(A)p.r(G)p.r(A)p.r(G)p.r(A)p.r(A)p.r(A)p.r(U)p.r(U)p.r(U)p.r(C)p.r(C)p.r(C)p.r(G)p.r(A)p.d(T)p.d(T)}$$$RNA1{StrandType:ss}|RNA2{StrandType:as}$	94% and 80%
RNA1{r(U)p.r(C)p.r(U)p.r(C)p.r(G)p.m(U)p.m(A)p.r(A)p.r(G)p.r(G)p.r(A)p.r(C)p.r(G)p.r(A)p.m(A)p.r(A)p.m(C)p.r(G)p.r(A)p.r(T)p.r(T)}|RNA2{r(U)p.r(C)p.r(G)p.r(U)p.r(U)p.r(U)p.r(C)p.r(G)p.r(U)p.r(C)p.r(C)p.r(U)p.m(U)p.r(A)p.r(C)p.r(G)p.r(A)p.r(G)p.r(A)p.r(T)p.r(T)}$$$RNA1{StrandType:ss}|RNA2{StrandType:as}$	52%
RNA1{r(U)p.r(C)p.r(U)p.r(C)p.r(G)p.r(U)p.r(A)p.r(A)p.r(G)p.r(G)p.r(A)p.r(C)p.r(G)p.r(A)p.r(A)p.r(A)p.r(C)p.r(G)p.r(A)p.r(T)p.r(T)}|RNA2{r(U)p.r(C)p.r(G)p.r(U)p.r(U)p.r(U)p.r(C)p.r(G)p.r(U)p.r(C)p.r(C)p.r(U)p.m(U)p.r(A)p.r(C)p.r(G)p.r(A)p.r(G)p.r(A)p.r(T)p.r(T)}$$$RNA1{StrandType:ss}|RNA2{StrandType:as}$	55%
RNA1{r(U)p.r(G)p.r(A)p.r(A)p.r(C)p.r(G)p.r(U)p.m(C)p.r(A)p.r(C)p.r(C)p.r(G)p.r(A)p.r(G)p.r(G)p.r(A)p.r(G)p.r(A)p.r(A)p.r(T)p.r(T)}|RNA2{r(U)p.r(U)p.r(C)p.r(U)p.r(C)p.r(C)p.r(U)p.r(C)p.r(G)p.r(G)p.r(U)p.r(G)p.r(A)p.r(C)p.r(G)p.r(U)p.r(U)p.m(C)p.r(A)p.r(T)p.r(T)}$$$RNA1{StrandType:ss}|RNA2{StrandType:as}$	85%
RNA1{r(U)p.r(G)p.r(A)p.r(A)p.r(U)p.r(C)p.r(A)p.r(G)p.r(A)p.r(A)p.r(G)p.r(A)p.r(U)p.r(G)p.r(A)p.r(A)p.r(G)p.r(U)p.r(C)p.r(A)p.r(A)}|RNA2{[una](G)p.r(A)p.r(C)p.r(U)p.r(U)p.r(C)p.r(A)p.r(U)p.r(C)p.r(U)p.r(U)p.r(C)p.r(U)p.r(G)p.r(A)p.r(U)p.r(U)p.r(C)p.r(A)p.r(A)p.r(G)}$$$RNA1{StrandType:ss}|RNA2{StrandType:as}$	94% and 92%
RNA1{r(U)p.r(G)p.r(A)p.r(G)p.r(A)p.r(G)p.r(A)p.r(A)p.r(A)p.r(G)p.r(C)p.r(A)p.r(C)p.r(A)p.r(G)p.r(A)p.r(A)p.r(A)p.r(A)p.d(T)p.d(T)}|RNA2{[lna](T)p.r(U)p.r(U)p.r(U)p.r(C)p.r(U)p.r(G)p.r(U)p.r(G)p.r(C)p.r(U)p.r(U)p.r(U)p.r(C)p.r(U)p.r(C)p.r(U)p.r(C)p.r(A)p.[lna](T)p.[lna](T)}$$$RNA1{StrandType:ss}|RNA2{StrandType:as}$	34%
RNA1{r(U)p.r(G)p.r(A)p.r(G)p.r(A)p.r(G)p.r(A)p.r(A)p.r(A)p.r(G)p.r(C)p.r(A)p.r(C)p.r(A)p.r(G)p.r(A)p.r(A)p.r(A)p.r(A)p.r(T)p.r(T)}|RNA2{[lna](T)p.r(U)p.r(U)p.r(U)p.r(C)p.r(U)p.r(G)p.r(U)p.r(G)p.r(C)p.r(U)p.r(U)p.r(U)p.r(C)p.r(U)p.r(C)p.r(U)p.r(C)p.r(A)p.[lna](T)p.[lna](T)}$$$RNA1{StrandType:ss}|RNA2{StrandType:as}$	45%
RNA1{r(U)p.r(U)p.m(A)p.m(C)p.r(A)p.r(A)p.r(A)p.r(G)p.r(G)p.r(A)p.r(U)p.r(C)p.r(U)p.r(C)p.r(C)p.r(U)p.r(C)p.r(C)p.r(C)p.r(T)p.r(T)}|RNA2{r(G)p.r(G)p.r(G)p.r(A)p.r(G)p.r(G)p.r(A)p.r(G)p.r(A)p.r(U)p.r(C)p.r(C)p.r(U)p.r(U)p.r(U)p.r(G)p.m(U)p.r(A)p.r(A)p.r(T)p.r(T)}$$$RNA1{StrandType:ss}|RNA2{StrandType:as}$	74%
RNA1{r(U)p.r(U)p.m(U)p.r(G)p.r(A)p.r(U)p.m(C)p.r(A)p.r(G)p.r(C)p.r(G)p.r(G)p.r(A)p.r(G)p.r(A)p.r(C)p.r(U)p.r(C)p.r(G)p.r(T)p.r(T)}|RNA2{r(C)p.r(G)p.r(A)p.r(G)p.r(U)p.r(C)p.r(U)p.r(C)p.r(C)p.r(G)p.r(C)p.m(U)p.r(G)p.r(A)p.r(U)p.m(C)p.r(A)p.r(A)p.r(A)p.r(T)p.r(T)}$$$RNA1{StrandType:ss}|RNA2{StrandType:as}$	89%
RNA1{r(U)p.r(U)p.r(C)p.[fl2r](U)p.r(A)p.r(A)p.r(C)p.r(C)p.r(G)p.r(G)p.r(G)p.[fl2r](C)p.r(A)p.r(G)p.r(C)p.r(U)p.r(U)p.r(C)p.r(U)p.r(T)p.r(T)}|RNA2{r(A)p.r(G)p.r(A)p.r(A)p.r(G)p.r(C)p.[fl2r](U)p.r(G)p.r(C)p.r(C)p.r(C)p.r(G)p.r(G)p.r(U)p.[fl2r](U)p.r(A)p.r(G)p.r(A)p.r(A)p.r(T)p.r(T)}$$$RNA1{StrandType:ss}|RNA2{StrandType:as}$	71%
RNA1{r(U)p.r(U)p.r(C)p.[fl2r](U)p.r(A)p.r(A)p.r(C)p.r(C)p.r(G)p.r(G)p.r(G)p.r(C)p.r(A)p.r(G)p.r(C)p.r(U)p.r(U)p.r(C)p.r(U)p.r(T)p.r(T)}|RNA2{r(A)p.r(G)p.r(A)p.r(A)p.r(G)p.r(C)p.r(U)p.r(G)p.r(C)p.r(C)p.r(C)p.r(G)p.r(G)p.r(U)p.[fl2r](U)p.r(A)p.r(G)p.r(A)p.r(A)p.r(T)p.r(T)}$$$RNA1{StrandType:ss}|RNA2{StrandType:as}$	72%
RNA1{r(U)p.r(U)p.r(U)p.[fl2r](C)p.[fl2r](C)p.[fl2r](C)p.[fl2r](C)p.[fl2r](C)p.r(A)p.r(G)p.r(G)p.r(U)p.r(A)p.r(A)p.[fl2r](C)p.r(G)p.r(A)p.r(U)p.r(U)p.r(T)p.r(T)}|RNA2{r(A)p.r(A)p.r(U)p.[fl2r](C)p.r(G)p.r(U)p.r(U)p.[fl2r](A)p.[fl2r](C)p.r(C)p.r(U)p.r(G)p.r(G)p.r(G)p.r(G)p.r(G)p.r(A)p.r(A)p.r(A)p.r(T)p.r(T)}$$$RNA1{StrandType:ss}|RNA2{StrandType:as}$	68%
RNA1{r(U)p.r(U)p.r(U)p.m(G)p.r(A)p.r(U)p.m(C)p.r(A)p.r(G)p.r(C)p.r(G)p.r(G)p.r(A)p.r(G)p.r(A)p.r(C)p.r(U)p.r(C)p.r(G)p.r(T)p.r(T)}|RNA2{r(C)p.r(G)p.r(A)p.r(G)p.r(U)p.r(C)p.r(U)p.r(C)p.r(C)p.r(G)p.r(C)p.r(U)p.r(G)p.r(A)p.r(U)p.r(C)p.r(A)p.r(A)p.r(A)p.r(T)p.r(T)}$$$RNA1{StrandType:ss}|RNA2{StrandType:as}$	82%
RNA1{r(U)p.r(U)p.r(U)p.r(C)p.r(A)p.r(C)p.r(U)p.r(A)p.r(C)p.r(U)p.r(C)p.r(C)p.r(U)p.r(A)p.r(C)p.r(G)p.r(A)p.r(G)p.r(C)p.d(T)p.d(T)}|RNA2{r(G)p.r(C)p.r(U)p.r(C)p.r(G)p.r(U)p.r(A)p.r(G)p.r(G)p.r(A)p.r(G)p.r(U)p.r(A)p.r(G)p.r(U)p.r(G)p.r(A)p.r(A)p.r(A)p.d(T)p.d(T)}$$$RNA1{StrandType:ss}|RNA2{StrandType:as}$	0%
RNA1{r(U)p.r(U)p.r(U)p.r(C)p.r(C)p.r(C)p.r(C)p.r(C)p.[fl2r](A)p.[fl2r](G)p.[fl2r](G)p.r(U)p.[fl2r](A)p.[fl2r](A)p.[fl2r](C)p.[fl2r](G)p.r(A)p.r(U)p.r(U)p.r(T)p.r(T)}|RNA2{r(A)p.r(A)p.r(U)p.r(C)p.r(G)p.r(U)p.r(U)p.r(A)p.r(C)p.r(C)p.r(U)p.r(G)p.r(G)p.r(G)p.r(G)p.r(G)p.r(A)p.r(A)p.r(A)p.r(T)p.r(T)}$$$RNA1{StrandType:ss}|RNA2{StrandType:as}$	78%
